Measured values as given in US20120115877A1, “Facially Amphiphilic Compounds, Compositions, And Uses Thereof In Treating Cancer” (POLYMEDIX, INC., priority 2010, published 2012).

Legend:
Type in all cases: cell-based, human
Conditions in all cases: 10 μM
[1] = test system: SF-268; assay: NCI-60 screen, CNS Cancer
Experimental: (§1) Several compounds were tested at single concentrations (10 μM) against 59 different human tumor cell lines, representing leukemia, melanoma and cancers of the lung, colon, brain, ovary, breast, prostate, and kidney (see, Table 3). The human tumor cell lines of the cancer screening panel were grown in RPMI 1640 medium containing 5% fetal bovine serum and 2 mM L-glutamine. For a typical screening experiment, cells were inoculated into 96 well microtiter plates in 100 μL at plating densities ranging from 5,000 to 40,000 cells/well depending on the doubling time of individual cell lines. After cell inoculation, the microtiter plates were incubated at 37° C., 5% CO2, 95% air and 100% relative humidity for 24 hours prior to addition of the compounds.
(§2) After 24 hours, two plates of each cell line were fixed in situ with TCA, to represent a measurement of the cell population for each cell line at the time of drug addition (Tz). Compounds were solubilized in dimethyl sulfoxide at 400-fold the desired final maximum test concentration and stored frozen prior to use. At the time of drug addition, an aliquot of frozen concentrate was thawed and diluted to twice the desired final maximum test concentration with complete medium containing 50 μg/ml gentamicin. Additional four, 10-fold or ½ log serial dilutions were made to provide a total of five compound concentrations plus control. Aliquots of 100 μl of these different drug dilutions were added to the appropriate microtiter wells already containing 100 μl of medium, resulting in the required final compound concentrations.
(§3) Following drug addition, the plates were incubated for an additional 48 hours at 37° C., 5% CO2, 95% air, and 100% relative humidity. For adherent cells, the assay was terminated by the addition of cold TCA. Cells were fixed in situ by the gentle addition of 50 μl of cold 50% (w/v) TCA (final concentration, 10% TCA) and incubated for 60 minutes at 4° C. The supernatant was discarded, and the plates were washed five times with tap water and air dried. Sulforhodamine B (SRB) solution (100 μl) at 0.4% (w/v) in 1% acetic acid was added to each well, and plates were incubated for 10 minutes at room temperature. After staining, unbound dye was removed by washing five times with 1% acetic acid and the plates were air dried. Bound stain was subsequently solubilized with 10 mM trizma base, and the absorbance was read on an automated plate reader at a wavelength of 515 nm. For suspension cells, the methodology was the same except that the assay was terminated by fixing settled cells at the bottom of the wells by gently adding 50 μl of 80% TCA (final concentration, 16% TCA). Using the seven absorbance measurements (time zero, (Tz), control growth, (C), and test growth in the presence of drug at the five concentration levels (Ti)), the percentage growth was calculated at each of the compound concentrations levels. Percentage growth inhibition was calculated as:
(§4) [(Ti−Tz)/(C−Tz)]×100 for concentrations for which Ti>/=Tz
(§5) [(Ti−Tz)/Tz]×100 for concentrations for which Ti<Tz.
(§6) Three dose response parameters were calculated for each compound. Growth inhibition of 50% (GI50) was calculated from [(Ti−Tz)/(C−Tz)]×100=50, which is the compound concentration resulting in a 50% reduction in the net protein increase (as measured by SRB staining) in control cells during the compound incubation. The compound concentration resulting in total growth inhibition (TGI) was calculated from Ti=Tz. The LC50 (concentration of compound resulting in a 50% reduction in the measured protein at the end of the compound treatment as compared to that at the beginning) indicating a net loss of cells following treatment was calculated from [(Ti−Tz)/Tz]×100=−50. Values were calculated for each of these three parameters if the level of activity was reached; however, if the effect was not reached or was exceeded, the value for that parameter was expressed as greater or less than the maximum or minimum concentration tested.

[2] = test system: SNB-75; assay: NCI-60 screen, CNS Cancer
Experimental: as §1, §2, §3, §4, §5, §6

[3] = test system: SF-295; assay: NCI-60 screen, CNS Cancer
Experimental: as §1, §2, §3, §4, §5, §6

[4] = test system: PC-3; assay: NCI-60 screen, Prostate Cancer
Experimental: as §1, §2, §3, §4, §5, §6

[5] = test system: DU-145; assay: NCI-60 screen, Prostate Cancer
Experimental: as §1, §2, §3, §4, §5, §6

[6] = test system: HT29; assay: NCI-60 screen, Colon Cancer
Experimental: as §1, §2, §3, §4, §5, §6

[7] = test system: HCT-15; assay: NCI-60 screen, Colon Cancer
Experimental: as §1, §2, §3, §4, §5, §6

[8] = test system: COLO 205; assay: NCI-60 screen, Colon Cancer
Experimental: as §1, §2, §3, §4, §5, §6

[9] = test system: SW-620; assay: NCI-60 screen, Colon Cancer
Experimental: as §1, §2, §3, §4, §5, §6

[10] = test system: KM12; assay: NCI-60 screen, Colon Cancer
Experimental: as §1, §2, §3, §4, §5, §6

[11] = test system: HCC-2998; assay: NCI-60 screen, Colon Cancer
Experimental: as §1, §2, §3, §4, §5, §6

[12] = test system: HCT-116; assay: NCI-60 screen, Colon Cancer
Experimental: as §1, §2, §3, §4, §5, §6

[13] = test system: MDA-MB-435; assay: NCI-60 screen, Melanoma
Experimental: as §1, §2, §3, §4, §5, §6

[14] = test system: UACC-62; assay: NCI-60 screen, Melanoma
Experimental: as §1, §2, §3, §4, §5, §6

[15] = test system: LOX IMVI; assay: NCI-60 screen, Melanoma
Experimental: as §1, §2, §3, §4, §5, §6

[16] = test system: SK-MEL-2; assay: NCI-60 screen, Melanoma
Experimental: as §1, §2, §3, §4, §5, §6

[17] = test system: MALME-3M; assay: NCI-60 screen, Melanoma
Experimental: as §1, §2, §3, §4, §5, §6

[18] = test system: SK-MEL-28; assay: NCI-60 screen, Melanoma
Experimental: as §1, §2, §3, §4, §5, §6

[19] = test system: UACC-257; assay: NCI-60 screen, Melanoma
Experimental: as §1, §2, §3, §4, §5, §6

[20] = test system: SK-MEL-5; assay: NCI-60 screen, Melanoma
Experimental: as §1, §2, §3, §4, §5, §6

[21] = test system: EKVX; assay: NCI-60 screen, Non-Small Cell Lung Cancer
Experimental: as §1, §2, §3, §4, §5, §6

[22] = test system: HOP-62; assay: NCI-60 screen, Non-Small Cell Lung Cancer
Experimental: as §1, §2, §3, §4, §5, §6

[23] = test system: NCI-H322M; assay: NCI-60 screen, Non-Small Cell Lung Cancer
Experimental: as §1, §2, §3, §4, §5, §6

[24] = test system: HOP-92; assay: NCI-60 screen, Non-Small Cell Lung Cancer
Experimental: as §1, §2, §3, §4, §5, §6

[25] = test system: NCI-H226; assay: NCI-60 screen, Non-Small Cell Lung Cancer
Experimental: as §1, §2, §3, §4, §5, §6

[26] = test system: NCI-H460; assay: NCI-60 screen, Non-Small Cell Lung Cancer
Experimental: as §1, §2, §3, §4, §5, §6

[27] = test system: SF-539; assay: NCI-60 screen, CNS Cancer
Experimental: as §1, §2, §3, §4, §5, §6

Structure (SMILES)	Percent Growth [1] [%]	Percent Growth [2] [%]	Percent Growth [3] [%]	Percent Growth [4] [%]	Percent Growth [5] [%]	Percent Growth [6] [%]	Percent Growth [7] [%]	Percent Growth [8] [%]	Percent Growth [9] [%]	Percent Growth [10] [%]	Percent Growth [11] [%]	Percent Growth [12] [%]	Percent Growth [13] [%]	Percent Growth [14] [%]	Percent Growth [15] [%]	Percent Growth [16] [%]	Percent Growth [17] [%]	Percent Growth [18] [%]	Percent Growth [19] [%]	Percent Growth [20] [%]	also measured
NCCc1cc(Br)cc(C#Cc2cccc(C#Cc3cc(Br)cc(CCN)c3)c2)c1 [Compound A]	61.55	−2.087	3.17	45.26	−83.92	−89.31	11.61	1.203	−73.58	−87.53	54.09	−45.86	−16.19	26.03	−76.91	3.515	106.8	79.76	68.25	80.5	Percent Growth [21]: 62.48%; Percent Growth [22]: 21.99%; Percent Growth [23]: 53%; Percent Growth [24]: 73.03%; Percent Growth [25]: 108.9%; Percent Growth [26]: −49.11%
N=C(N)NCCCCC(=O)Nc1cc(C(F)(F)F)cc(NC(=O)Nc2ccc(NC(=O)Nc3cc(C(F)(F)F)cc(NC(=O)CCCCNC(=N)N)c3OC3CCNC3)cc2)c1OC1CCNC1 (centres unmarked) [Compound B]	49.93	19.48	38.86	59.59	70.36	59.66	61.39	55.41	69.71	24.16	75.82	45.1	48.12	75.91	59.57	60.98	83.13	68.29	75.89	50.91	Percent Growth [27]: 30.8%; Percent Growth [21]: 61.92%; Percent Growth [22]: 23.47%; Percent Growth [23]: 80.76%; Percent Growth [24]: 81.51%; Percent Growth [25]: 51.21%; Percent Growth [26]: 50.72%
N=C(N)NCCCCC(=O)Nc1cc(C(F)(F)F)cc(NC(=O)c2cc(C(=O)Nc3cc(C(F)(F)F)cc(NC(=O)CCCCNC(=N)N)c3SCCN)ncn2)c1SCCN [Compound C]	53.24	22.47	39.81	77.68	62.89	17.03	33.27	−73.2	34.39	−39.48	54.2	37.88	35.56	55.93	50.64	54.29	63.62	61.39	61.31	34.55	Percent Growth [27]: 70.3%; Percent Growth [21]: 59.82%; Percent Growth [22]: 37.78%; Percent Growth [23]: 83.13%; Percent Growth [24]: 93.99%; Percent Growth [25]: 63.82%; Percent Growth [26]: 28.72%
NCCCc1cccc(-c2ccc3sc4ccc(-c5cccc(CCCN)c5)cc4c3c2)c1 [Compound D]	73.4	71.15	87.17	73.6	55.35	21.31	88.15	31.52	15.48	42.09	93.27	0.5127	81.14	88.44	26.77	81	134.1	99.21	100	100.8	Percent Growth [27]: 98.34%; Percent Growth [21]: 98.18%; Percent Growth [22]: 90.64%; Percent Growth [23]: 107%; Percent Growth [24]: 78.26%; Percent Growth [25]: 110.1%; Percent Growth [26]: 69.57%
c1cc(-c2ccc3sc4ccc(-c5ccnc(N6CCNCC6)c5)cc4c3c2)cc(N2CCNCC2)n1 [Compound E]	−37.05	−94.79	−50.65	−85.11	−97.96	−87.5	−54.01	−59.52	−87.3	−87.84	−9.443	−48.52	−84.03	−41.07	−80.29	−73.48	−4.679	−51.91	−70.37	63.85	Percent Growth [27]: 14.26%; Percent Growth [21]: 22.56%; Percent Growth [22]: −80.18%; Percent Growth [23]: −53.02%; Percent Growth [24]: 32.76%; Percent Growth [25]: 39.89%; Percent Growth [26]: −78.46%
